From patent US20090074750A1, “REGULATOR OF BASAL CELLULAR CALCIUM CONCENTRATION AND METHODS OF USE” (priority 2007, published 2009) come the findings set out here.

Structures are written as SMILES.

For the assay, the system named is HeLa cells. The experiment in a line: YFP-Stim2 localization after thapsigargin ER Ca^2+ store depletion (confocal imaging). The assay is classed as cell-based, human. The conditions noted are these: 1 uM thapsigargin. The method, then:
FIG. 3. Stim2 translocates to ER-PM junctions following ER Ca^2+ depletion. (A-C) YFP-Stim2 was expressed (˜24 hour) in HeLa (A), HUVEC, (B), and HEK293T (C) cells and confocal images were taken before and 2 minutes after 1 uM thapsigargin addition. […] HeLa cells were transfected for two days with ORAI1 siRNA and transfected for 24 hours with YFP-Stim2. Cells used in the analysis expressed YFP at 7.5 to 15 fold above background. N=10 sites.
Confocal imaging was performed using a Zeiss spinning disk confocal. Cells were imaged in extracellar buffer as described in the Ca^2+ measurements section.
We employed the YFP tagged Stim2 construct to investigate its localization and activation mechanism. Cells with submaximal YFP-Stim2 expression were selected to minimize expression artifacts. […] We observed the same YFP-Stim2 puncta formation in HeLa, Huvec, and HEK293T cell lines (FIGS. 3A-C). We then compared Stim1 and Stim2 localization by co-transfection of CFP-Stim1 and YFP-Stim2 followed by thapsigargin-induced depletion of ER Ca^2+ stores. CFP-Stim1 and YFP-Stim2 were co-localized in the same puncta that have previously been characterized as ER-PM junction sites (FIG. 3D) (Liou et al., 2005, Wu et al., 2006). […]

In the case of `C/C=C(/C)C(=O)O[C@H]1C(C)=C2[C@H]([C@@H]1OC(=O)CCCCCCC)[C@@](C)(OC(C)=O)C[C@H](OC(=O)CCC)[C@@]1(O)[C@H]2OC(=O)[C@@]1(C)O` [thapsigargin], the “YFP-Stim2 translocation to PM localized puncta” value is listed as “rapid translocation”.
